Where “and” joins values, the source holds several entries; their conditions need not be identical. Equal entries are not always repeated.

The nature of one data set: Flashpoint. The format is physicochemical.
Another data set is described as follows: Pour point. The format is physicochemical. From the text:
In addition, the inventive ester oils have a high flashpoint, such that use at relatively high oil sump and component temperatures is possible without risk. In addition, the pour point of the ester oils is relatively low, as a result of which the esters are also usable at low temperatures. For a liquid product, the pour point denotes the temperature at which it is still just free-flowing in the course of cooling. Thus, the inventive ester oils can be used within a broad temperature range.

Data set [1] can be described thus: NOACK vaporization (physical vaporization according to Noack, 250° C. for 1 h). The format is physicochemical. From the text: Trimethylolpropane esters (TMP-C8/C10) are commercially available from various suppliers and have been used for comparative purposes.
The nature of a further data set: Viscosity index (VI). The format is physicochemical.
Another data set in a line: Kinematic viscosity. The format is physicochemical.
The conditions of data set [2]: taken from safety data sheets; cited from earlier work.
For data set [3] the following is noted: taken from safety data sheets; cited from earlier work. The source holds these as a separate data set.
Data set [4] is described as follows: Cold Crank Simulator according to ASTM D5293. The format is physicochemical. The method, then:
For the C12D13 esters and the C10D13 esters, three independently prepared samples were included in each case. For the C9D13 ester and for the D5C18 ester, one sample was analyzed in each case. The “CCS−25° C. [mPas]” and “CCS−20° C. [mPas]” columns each contain figures for the “Cold Crank Simulator” according to the standard ASTM D5293 at −25° C. and −20° C. The HTHS150° C. [mPas] column indicates what is called the “High-Temperature High-Shear Viscosity” (HTHS) at elevated temperature.

The conditions of data set [5]: taken from safety data sheets; cited from earlier work. This is another data set of the same source.
The next data set can be described thus: Density. To be noted: Table 3. The format is physicochemical.
Setting [6] is: Table 3, listed as C10D13 (4th sample).
The mark [7] stands for this setting: Table 3, listed as C10D13 (5th sample).

Take `CC(C)CCCCCCCCCCOC(=O)CCCCCCCC(=O)OCCCCCCCCCCC(C)C` [C9D13, di(isotridecyl)nonanedioate]: the Flashpoint in “Flashpoint” (Table 2, base oil) was 258 °C. Further, in the data set “Pour point” (Table 2, base oil), the Pour point was −39 °C. Also, the NOACK in data set [1] (Table 2, base oil) is recorded as 4.0%; in data set [1] (Table 3, 250° C. for 1 h), 3.5%. For the same compound, the VI in “Viscosity index (VI)” (Table 2, base oil) is 124; in “Viscosity index (VI)” (Table 3), 150. The “η40° C.” value was determined as 42.4 mm^2/s in “Kinematic viscosity” (Table 2, 40° C.) and 36.1 mm^2/s in “Kinematic viscosity” (Table 3, 40° C.). In addition, the “η100° C.” value in “Kinematic viscosity” (Table 2, 100° C.) was determined as 6.82 mm^2/s; in “Kinematic viscosity” (Table 3, 100° C.), 6.8 mm^2/s.
The compound `CC(C)CCCCCCCOC(=O)CCCCCCCC(=O)OCCCCCCCC(C)C` [Diisodecyl azelate] gave a Flashpoint in “Flashpoint” (Table 2, base oil) of 230 °C. In the data set “Pour point” (Table 2, base oil), the Pour point is −65 °C. The NOACK in data set [1] (Table 2, base oil) was determined as 9.8%. In the data set “Viscosity index (VI)” (Table 2, base oil), the VI was 151. For the same compound, in the data set “Kinematic viscosity” (Table 2, 40° C.), the “η40° C.” value is listed as 18.1 mm^2/s. Further, in the data set “Kinematic viscosity” (Table 2, 100° C.), the “η100° C.” value was 4.3 mm^2/s.
As to Dodecanediol dipelargonate, in “Pour point” (Table 2, base oil), the Pour point is −38 °C. In data set [1] (Table 2, base oil), this compound displayed an NOACK of 7.4%. Moreover, the VI in the data set “Viscosity index (VI)” (Table 2, base oil) is on record as 182. The “η40° C.” value in “Kinematic viscosity” (Table 2, 40° C.) is on record as 25.25 mm^2/s. In “Kinematic viscosity” (Table 2, 100° C.), the “η100° C.” value is 5.58 mm^2/s.
Compound `CCCCCCCCC(CCCCCC)COC(=O)CCCCCCCC(=O)OCC(CCCCCC)CCCCCCCC` (stereo not drawn) [Bis(2-hexyldecyl) azelate] registered a Flashpoint in “Flashpoint” (Table 2, base oil) of 278 °C. Besides, the Pour point in the data set “Pour point” (Table 2, base oil) was −64 °C. Moreover, the VI in “Viscosity index (VI)” (Table 2, base oil) amounted to 160. In “Kinematic viscosity” (Table 2, 40° C.), the “η40° C.” value came to 33.0 mm^2/s. In the data set “Kinematic viscosity” (Table 2, 100° C.), the “η100° C.” value is 6.60 mm^2/s.
In the case of Di(iso-C9) dodecanedioate, the Pour point in “Pour point” (Table 2, base oil) is −25 °C. The same compound showed an NOACK in [1] (Table 2, base oil) of 6.0%. Besides, in “Viscosity index (VI)” (Table 2, base oil), the VI came to 184. Moreover, in “Kinematic viscosity” (Table 2, 40° C.), the “η40° C.” value came to 23.2 mm^2/s. Besides, the “η100° C.” value in “Kinematic viscosity” (Table 2, 100° C.) is reported as 5.28 mm^2/s.
“trimethylolpropane ester [TMP-C8/10, reference compound]” returned a Flashpoint in the data set “Flashpoint” (Table 3) of 235 °C. For the same compound, the “Aquatic toxicity OECD 201” value in data set [2] is 140 mg/L. Further, the “Aquatic toxicity OECD 203” value in [3] is listed as >10 000 mg/l. Moreover, in [4], the “CCS−20° C.” value is given as 221 mPas and the “CCS−25° C.” value was 853 mPas. In “Pour point” (Table 3), the Pour point is −30 °C. Besides, the NOACK in data set [1] (Table 3, 250° C. for 1 h) is recorded as 3.6%. Besides, in data set [5], the “Aquatic toxicity OECD 202” value was 600 mg/L. In addition, the Density in the data set “Density” is 0.94 g/mL. The compound also came in with a VI in “Viscosity index (VI)” (Table 3) of 140. The “η40° C.” value in the data set “Kinematic viscosity” (Table 3, 40° C.) amounted to 22 mm^2/s. In the data set “Kinematic viscosity” (Table 3, 100° C.), the “η100° C.” value came to 4.5 mm^2/s.
`CC(C)CCCCCCCCCCCCCCC(=O)OCC(C)(C)COC(=O)CCCCCCCCCCCCCCC(C)C` [D5C18, neopentyl glycol di(isostearate)] returned a Flashpoint in “Flashpoint” (Table 3) of 280 °C. For the same compound, the “Aquatic toxicity OECD 201” value in data set [2] was >1000 mg/L. Moreover, the “Aquatic toxicity OECD 203” value in [3] is on record as >10 000 mg/l. Further, in “Pour point” (Table 3), the Pour point is −44 °C. Moreover, the NOACK in [1] (Table 3, 250° C. for 1 h) came out at 2.0%. Moreover, the “Aquatic toxicity OECD 202” value in [5] was >1000 mg/L. In “Viscosity index (VI)” (Table 3), this compound came in with a VI of 146. For the same compound, in “Kinematic viscosity” (Table 3, 40° C.), the “η40° C.” value turned out to be 46.0 mm^2/s. Further, the “η100° C.” value in “Kinematic viscosity” (Table 3, 100° C.) was 8.0 mm^2/s.
In the data set “Flashpoint” (Table 2, base oil), `CC(C)CCCCCCCOC(=O)CCCCCCCCCCC(=O)OCCCCCCCC(C)C` [Di(isodecyl) dodecanedioate] returned a Flashpoint of 266 °C. In addition, the NOACK in data set [1] (Table 2, base oil) is 3.5% and 4.3%. Moreover, in “Viscosity index (VI)” (Table 2, base oil), the VI was 161 and 162. Moreover, the “η40° C.” value in “Kinematic viscosity” (Table 2, 40° C.) is 25.7 mm^2/s and 23.4 mm^2/s. Besides, in “Kinematic viscosity” (Table 2, 100° C.), the “η100° C.” value is 5.58 mm^2/s and 5.2 mm^2/s.
In the data set “Flashpoint” (Table 2, base oil), Di(C9) dodecanedioate had a Flashpoint of 245 °C. In data set [1] (Table 2, base oil), the NOACK turned out to be 5.0%. In “Viscosity index (VI)” (Table 2, base oil), this compound gave a VI of 189. For the same compound, the “η40° C.” value in the data set “Kinematic viscosity” (Table 2, 40° C.) is listed as 24.8 mm^2/s. Moreover, the “η100° C.” value in “Kinematic viscosity” (Table 2, 100° C.) was found to be 5.6 mm^2/s.
The compound `CC(C)CCCCCCCCCCOC(=O)CCCCCCCCC(=O)OCCCCCCCCCCC(C)C` [C10D13, di(isotridecyl)decanedioate] registered a Flashpoint in the data set “Flashpoint” (Table 3) of 250 °C. Moreover, the Pour point in the data set “Pour point” (setting [6]) was −52 °C; in “Pour point” (setting [7]), −50 °C. For the same compound, the NOACK in data set [1] (Table 3, 250° C. for 1 h, listed as C10D13 (4th sample)) is on record as 2.7%; in [1] (Table 3, 250° C. for 1 h, listed as C10D13 (5th sample)), 4%; in data set [1] (Table 3, 250° C. for 1 h, listed as C10D13 (6th sample)) it was 3.4%. Further, the VI came to 172 in the data set “Viscosity index (VI)” (setting [6]); 150 in the data set “Viscosity index (VI)” (setting [7]); 149 in the data set “Viscosity index (VI)” (Table 3, listed as C10D13 (6th sample)). Moreover, the “η40° C.” value in the data set “Kinematic viscosity” (Table 3, 40° C., listed as C10D13 (4th sample)) was 35.5 mm^2/s; in “Kinematic viscosity” (Table 3, 40° C., listed as C10D13 (5th sample)), 36.0 mm^2/s; in the data set “Kinematic viscosity” (Table 3, 40° C., listed as C10D13 (6th sample)), 35.7 mm^2/s. In addition, the “η100° C.” value in “Kinematic viscosity” (Table 3, 100° C., listed as C10D13 (4th sample)) was determined as 7.2 mm^2/s; in the data set “Kinematic viscosity” (Table 3, 100° C., listed as C10D13 (5th sample)) it was 6.8 mm^2/s; in the data set “Kinematic viscosity” (Table 3, 100° C., listed as C10D13 (6th sample)), 6.7 mm^2/s.
For the compound `CCCCCCCCCCCCCCOC(=O)CCCCC(=O)OCCCCCCCCCCCCCC` [Ditetradecyl adipate], the VI in the data set “Viscosity index (VI)” (Table 2, base oil) is on record as 75. In addition, the “η40° C.” value in the data set “Kinematic viscosity” (Table 2, 40° C.) stood at 34.3 mm^2/s. The “η100° C.” value in the data set “Kinematic viscosity” (Table 2, 100° C.) amounted to 5.1 mm^2/s.
In the case of `CC(C)CCCCCCCOC(=O)CCCCC(=O)OCCCCCCCC(C)C` [Diisodecyl adipate], the Flashpoint in “Flashpoint” (Table 2, base oil) was found to be 235 °C. Moreover, in the data set “Pour point” (Table 2, base oil), the Pour point is −60 °C. Also, the NOACK in data set [1] (Table 2, base oil) is recorded as 15.5%. The compound further had a VI in the data set “Viscosity index (VI)” (Table 2, base oil) of 148. In addition, the “η40° C.” value in “Kinematic viscosity” (Table 2, 40° C.) is 14.0 mm^2/s. Also, in the data set “Kinematic viscosity” (Table 2, 100° C.), the “η100° C.” value is on record as 3.10 mm^2/s.
For the compound `CC(C)CCCCCCCCCCOC(=O)CCCCC(=O)OCCCCCCCCCCC(C)C` [DITA, diisotridecyl adipate, reference compound], the Flashpoint is 227 °C in the data set “Flashpoint” (Table 2, base oil) and 244 °C in “Flashpoint” (Table 3). Also, the “Aquatic toxicity OECD 201” value in data set [2] was >1000 mg/L. For the same compound, the “CCS−20° C.” value in data set [4] is on record as 1455 mPas. Further, the “CCS−25° C.” value in [4] is 2646 mPas. Further, the Pour point in the data set “Pour point” (Table 2, base oil) is −51 °C; in the data set “Pour point” (Table 3) it was −60 °C. The NOACK is given as 8-10% in data set [1] (Table 2, base oil) and 10.0% in data set [1] (Table 3, 250° C. for 1 h). The “Aquatic toxicity OECD 202” value in data set [5] is >100 mg/L. Further, the Density in the data set “Density” was 0.91 g/mL. In addition, the VI in the data set “Viscosity index (VI)” (Table 2, base oil) is given as 139; in the data set “Viscosity index (VI)” (Table 3), 139. Moreover, the “η40° C.” value in the data set “Kinematic viscosity” (Table 2, 40° C.) came out at 27.0 mm^2/s; in “Kinematic viscosity” (Table 3, 40° C.) it was 25 mm^2/s. In addition, the “η100° C.” value in “Kinematic viscosity” (Table 2, 100° C.) worked out at 5.4 mm^2/s; in “Kinematic viscosity” (Table 3, 100° C.), 5 mm^2/s.
In the data set “Flashpoint” (Table 2, base oil), `CCCCCCCCCCCCCOC(=O)CCCCCCCC(=O)OCCCCCCCCCCCCC` [Ditridecyl azelate] showed a Flashpoint of 243 °C. For the same compound, in “Pour point” (Table 2, base oil), the Pour point is −55 °C. The same compound registered a VI in the data set “Viscosity index (VI)” (Table 2, base oil) of 145. In the data set “Kinematic viscosity” (Table 2, 40° C.), the “η40° C.” value is 33.8 mm^2/s. For the same compound, the “η100° C.” value in “Kinematic viscosity” (Table 2, 100° C.) was 6.4 mm^2/s.
